# Experimental data reported in PMC9026172, “Pharmacodynamics, Network Pharmacology, and Pharmacokinetics of Chinese Medicine Formula 9002A in the Treatment of Alzheimer’s Disease” (Frontiers in Pharmacology, 2022).
# Like-named read-outs stand apart in the source and are kept apart here.
# Tests used:
# [1] = Absorbed constituents and pharmacokinetics in rat plasma after Formula 9002A (UPLC-QTof-MS); conditions: for half-life: SD, rat; for Fold increase of mean residence time after Formula 9002A vs monomer: vs administration of a monomer; for Fold increase of half-life after Formula 9002A vs monomer: vs intragastric or intravenous monomer from literature
# Method: The supernatant were obtained and concentrated, then dissolved with 50% methanol–water at 4°C for LC-MS/MS analysis.
# Waters Xevo G2-XS QTof-MS and Masslynx software were used to acquire LC-MS/MS raw data. Chromatographic separation on the Waters Acquity UPLC HSS T3 column was performed on the samples. The mobile phases consisted of (A) 0.1% formic acid in water and (B) acetonitrile. […] The flow rate was set at 0.3 ml/min. The temperatures of the column and the auto sampler were maintained at 40 and 4°C, respectively. The injection volume was 5 μl.
# MS conditions: positive and negative ion electrospray modes were both used. Capillary voltages were set at 3 kV for the positive mode and 2.5 kV for the negative mode. Source temperature was set as 100 °C. Nitrogen was used as the nebulizer and auxiliary gas; flow rates and temperature of desolvation gas were 1,000 L/h and 400°C, respectively. The range of data acquisition was from 50 to 1,000 m/z, and the scan time was set to 0.2 s. MS^E analysis was performed with 6 eV for the low collision energy scan and 35 eV for the high collision energy scan.
# The absorbed components were identified by the exact molecular mass, molecular formula, and MS^2 fragment data compared with the standard substances and literature data. The DAS 3.3.0 software was used for calculating the terminal elimination half-life (t1/2) and mean residence time (MRT).
# [2] = test system: Aβ deposition and glial cell activation in the brain; design: method as in Hu et al. (2014); conditions: transgenic mice; ref Hu et al. (2014); cited from earlier work
# [3] = design: method as in Naseri-Nosar and Ziora, 2018; conditions: ref Naseri-Nosar and Ziora, 2018, cited from earlier work
# [4] = test system: tight junction proteins (such as claudin-5 and occludin); design: method as in Gibson et al., 2014; conditions: by inhibiting the activation of MMP-9; ref Gibson et al., 2014; cited from earlier work
# Nrf2 and HO-1 = test system: Nrf2 and HO-1; design: method as in Hindam et al., 2014; conditions: streptozotocin-induced cognitive dysfunction; ref Hindam et al., 2014; cited from earlier work
# 3xTg AD mice = test system: 3xTg AD mice; design: method as in Liu et al., 2013; conditions: after 8 months of treatment; ref Liu et al., 2013; cited from earlier work
smiles,measurement,setting,value
OCc1ccc(O[C@@H]2O[C@H](CO)[C@@H](O)[C@H](O)[C@H]2O)cc1 [gastrodin],half-life,[1]; in vivo,2.58 h
same,Fold increase of mean residence time after Formula 9002A vs monomer,[1]; plasma,~2 fold
same,Fold increase of half-life after Formula 9002A vs monomer,[1]; plasma,~2 fold
same,Aβ deposition and glial cell activation in the brain,[2],significantly reduce Aβ deposition and glial cell activation
OC[C@H]1O[C@@H](OCCc2ccc(O)cc2)[C@H](O)[C@@H](O)[C@@H]1O [salidroside],half-life,[3]; gavage of salidroside monomer,0.64 h
same,half-life,[3]; intravenous injection of salidroside monomer,1.16 h
same,half-life,[1]; plasma,2.12 h
same,Fold increase of mean residence time after Formula 9002A vs monomer,[1]; plasma,~2 fold
same,Fold increase of half-life after Formula 9002A vs monomer,[1]; plasma,2- to 3 fold
same,Tight junction proteins / BBB damage,[4],reversed the decrease in tight junction proteins
O=c1ccc2ccc(O)cc2o1 [umbelliferone],Content of Nrf2 and HO-1,Nrf2 and HO-1,significantly increase
NC(=O)c1cccnc1 [niacinamide],Cognitive function,3xTg AD mice,could be improved
